Measurements published in patent publication US10626125B2, “1,1,1-trifluoro-3-hydroxypropan-2-yl carbamate derivatives as MAGL inhibitors” (PFIZER INC., priority 2017, dated 2020).
Read-outs that look alike come from different tables or passages of the source.

Key:
[1] = target: T1, human recombinant Monoacylglycerol Lipase (Homo sapiens, UniProt Q99685); experiment: MAGL enzymatic assay (IC50; 7-HCA substrate added at T=0 min or T=30 min); format: biochemical; details: geometric mean of 2-5 determinations unless otherwise indicated
T1 sequence (Q99685 1-303): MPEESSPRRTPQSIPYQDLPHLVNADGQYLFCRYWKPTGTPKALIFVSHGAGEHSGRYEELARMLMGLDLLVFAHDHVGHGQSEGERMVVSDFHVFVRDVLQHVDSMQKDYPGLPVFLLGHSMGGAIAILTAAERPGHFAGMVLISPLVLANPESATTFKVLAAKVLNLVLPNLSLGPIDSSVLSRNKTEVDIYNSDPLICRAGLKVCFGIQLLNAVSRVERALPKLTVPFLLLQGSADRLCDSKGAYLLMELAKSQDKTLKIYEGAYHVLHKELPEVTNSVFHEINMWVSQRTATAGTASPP

[2] = target: T1, human recombinant Monoacylglycerol Lipase; experiment: MAGL inactivation (kinact/KI from enzyme progress curves, T=0 min protocol); details: from plot of Kobs vs. compound concentration, geometric mean of 2-5 determinations (b: ≥6)
[3] = MAGL (T = 30 min) IC50, substrate 7-HCA added after 30 minute incubation (T=30 min)
[4] = substrate 7-HCA added immediately (T=0 min), read-out: MAGL (T = 0 min) IC50

| IC50 [1, 3] | IC50 [1, 4] | MAGL kinact/KI [2] | Structure (SMILES) |
| --- | --- | --- | --- |
| 30 nM | 310 nM | 1420 1/s per M | O=C(O[C@H](CO)C(F)(F)F)N1CCC2(CC1)CC(n1cccn1)C2 [Example 56, (2R)-1,1,1-trifluoro-3-hydroxypropan-2-yl 2-(1H-pyrazol-1-yl)-7-azaspiro[3.5]nonane-7-carboxylate] |
| 21 nM | 169 nM | 1810 1/s per M | CN(C(=O)C1CC(F)(F)C1)[C@H]1COC2(CCN(C(=O)O[C@H](CO)C(F)(F)F)CC2)C1 [Example 58, (2R)-1,1,1-trifluoro-3-hydroxypropan-2-yl (3R)-3-{[(3,3-difluorocyclobutyl)carbonyl](methyl)amino}-1-oxa-8-azaspiro[4.5]decane-8-carboxylate] |
| 1 nM | 9 nM | 75400 1/s per M | O=C(O[C@H](CO)C(F)(F)F)N1CCC2(CC1)CC(c1cc(C(F)F)ccn1)C2 [Example 78, (2R)-1,1,1-trifluoro-3-hydroxypropan-2-yl 2-[4-(difluoromethyl)pyridin-2-yl]-7-azaspiro[3.5]nonane-7-carboxylate] |
| 3 nM | 9 nM | 21800 1/s per M | O=C(O[C@H](CO)C(F)(F)F)N1CCC2(CC1)CC(c1ccc(C(F)(F)F)cn1)CO2 (single isomer, unassigned) [Example 40] |
| 3 nM | 16 nM | 32800 1/s per M | O=C(O[C@H](CO)C(F)(F)F)N1CCC2(CC1)CC(n1cc(C(F)(F)F)cn1)CO2 (single isomer, unassigned) [Example 9] |
| 2 nM | 21 nM | 33800 1/s per M | O=C(O[C@H](CO)C(F)(F)F)N1CCC2(CC1)CC(c1ccc(F)cn1)C2 [Example 2, (2R)-1,1,1-Trifluoro-3-hydroxypropan-2-yl 2-(5-fluoropyridin-2-yl)-7-azaspiro[3.5]nonane-7-carboxylate] |
| 4 nM | 45 nM | 20400 1/s per M | O=C(O[C@H](CO)C(F)(F)F)N1CCC2(CC1)CC(c1ccccn1)C2 [Example 81, (2R)-1,1,1-trifluoro-3-hydroxypropan-2-yl 2-(pyridin-2-yl)-7-azaspiro[3.5]nonane-7-carboxylate] |
| 1 nM | 9 nM | 66900 1/s per M | O=C(O[C@H](CO)C(F)(F)F)N1CCC2(CC1)CC(n1ccc(C(F)(F)F)n1)CO2 (single isomer, unassigned) [Example 53] |
| 0.4 nM | 4 nM | 309000 1/s per M | CN(C(=O)C(C)(C)C)C1CC2(CCN(C(=O)O[C@H](CO)C(F)(F)F)CC2)C1 [Example 42, (2R)-1,1,1-trifluoro-3-hydroxypropan-2-yl 2-[(2,2-dimethylpropanoyl)(methyl)amino]-7-azaspiro[3.5]nonane-7-carboxylate] |
| 2 nM | 17 nM | 17100 1/s per M | COc1cc(C2CC3(CCN(C(=O)O[C@H](CO)C(F)(F)F)CC3)C2)ccn1 [Example 47, (2R)-1,1,1-trifluoro-3-hydroxypropan-2-yl 2-(2-methoxypyridin-4-yl)-7-azaspiro[3.5]nonane-7-carboxylate] |
| 4 nM | 44 nM | 10600 1/s per M | Cc1nn(C2CC3(CCN(C(=O)O[C@H](CO)C(F)(F)F)CC3)C2)c(C)c1C [Example 65, (2R)-1,1,1-trifluoro-3-hydroxypropan-2-yl 2-(3,4,5-trimethyl-1H-pyrazol-1-yl)-7-azaspiro[3.5]nonane-7-carboxylate] |
| 0.6 nM | 4 nM | 42100 1/s per M | O=C(O[C@H](CO)C(F)(F)F)N1CCC2(CC1)CC(Oc1ccc(C(F)F)cn1)C2 [Example 85, (2R)-1,1,1-trifluoro-3-hydroxypropan-2-yl 2-{[5-(difluoromethyl)pyridin-2-yl]oxy}-7-azaspiro[3.5]nonane-7-carboxylate] |
| 1 nM | 4 nM | 200000 1/s per M | CC(C)(C)c1ccn(C2COC3(CCN(C(=O)O[C@H](CO)C(F)(F)F)CC3)C2)n1 (single isomer, unassigned) [Example 52] |
| 1 nM | 8 nM | 87700 1/s per M | O=C(O[C@H](CO)C(F)(F)F)N1CCC2(CC1)CC(c1ccccc1F)CO2 (single isomer, unassigned) [Example 26] |

Further lines, the compound ahead of its results:

| Structure (SMILES) | IC50 [1, 3] | IC50 [1, 4] | MAGL kinact/KI [2] |
| --- | --- | --- | --- |
| O=C(O[C@H](CO)C(F)(F)F)N1CCC2(CC1)CC(c1ccc(C(F)F)nc1)CO2 (single isomer, unassigned) [Example 37] | 8 nM | 57 nM | 3840 1/s per M |
| O=C(O[C@H](CO)C(F)(F)F)N1CCC2(CC1)CC(c1ccc(C(F)F)nc1)C2 [Example 82, (2R)-1,1,1-trifluoro-3-hydroxypropan-2-yl 2-[6-(difluoromethyl)pyridin-3-yl]-7-azaspiro[3.5]nonane-7-carboxylate] | 2 nM | 24 nM | 19300 1/s per M |
| O=C(O[C@H](CO)C(F)(F)F)N1CCC2(CC1)CC(c1ccc(C(F)(F)F)cn1)C2 [Example 79, (2R)-1,1,1-trifluoro-3-hydroxypropan-2-yl 2-[5-(trifluoromethyl)pyridin-2-yl]-7-azaspiro[3.5]nonane-7-carboxylate] | 1 nM | 8 nM | 63500 1/s per M |
| O=C(O[C@H](CO)C(F)(F)F)N1CCC2(CC1)CC(Oc1ccccn1)C2 [Example 87, (2R)-1,1,1-trifluoro-3-hydroxypropan-2-yl 2-(pyridin-2-yloxy)-7-azaspiro[3.5]nonane-7-carboxylate] | 2 nM | 26 nM | 32600 1/s per M |
| O=C(O[C@H](CO)C(F)(F)F)N1CCC2(CC1)CC(c1cc(C(F)(F)F)ccn1)C2 [Example 83, (2R)-1,1,1-trifluoro-3-hydroxypropan-2-yl 2-[4-(trifluoromethyl)pyridin-2-yl]-7-azaspiro[3.5]nonane-7-carboxylate] | 0.6 nM | 5 nM | 156000 1/s per M |
| O=C(O[C@H](CO)C(F)(F)F)N1CCC2(CC1)CC(c1ccc(C(F)F)cn1)C2 [Example 48, (2R)-1,1,1-trifluoro-3-hydroxypropan-2-yl 2-[5-(difluoromethyl)pyridin-2-yl]-7-azaspiro[3.5]nonane-7-carboxylate] | 2 nM | 18 nM | 26000 1/s per M |
| O=C(O[C@H](CO)C(F)(F)F)N1CCC2(CCC(c3ccc(F)cn3)CO2)CC1 (single isomer, unassigned) [Example 74] | 6 nM | 69 nM | 7140 1/s per M |
| O=C(O[C@H](CO)C(F)(F)F)N1CCC2(CC1)CC(n1cc(C3CC3)cn1)CO2 (mixture of isomers) [Example 23, (2R)-1,1,1-trifluoro-3-hydroxypropan-2-yl 3-(4-cyclopropyl-1H-pyrazol-1-yl)-1-oxa-8-azaspiro[4.5]decane-8-carboxylate, mixture of diastereomers] | 9 nM | 68 nM | 9650 1/s per M |
| CN(C(=O)Cc1ccccc1)C1CC2(CCN(C(=O)O[C@H](CO)C(F)(F)F)CC2)C1 [Example 44, (2R)-1,1,1-trifluoro-3-hydroxypropan-2-yl 2-[methyl(phenylacetyl)amino]-7-azaspiro[3.5]nonane-7-carboxylate] | 4 nM | 40 nM | 13800 1/s per M |
| O=C(O[C@H](CO)C(F)(F)F)N1CCC2(CC1)CC(c1cccc(C(F)(F)F)n1)CO2 (single isomer, unassigned) [Example 15] | 7 nM | 67 nM | 8230 1/s per M |
| N#Cc1ccc(C2COC3(CCN(C(=O)O[C@H](CO)C(F)(F)F)CC3)C2)cc1 (single isomer, unassigned) [Example 31] | 4 nM | 33 nM | 8060 1/s per M |
| O=C(O[C@H](CO)C(F)(F)F)N1CCC2(CC1)CC(n1cc(C(F)F)cn1)C2 [Example 66, (2R)-1,1,1-trifluoro-3-hydroxypropan-2-yl 2-[4-(difluoromethyl)-1H-pyrazol-1-yl]-7-azaspiro[3.5]nonane-7-carboxylate] | 4 nM | 40 nM | 15700 1/s per M |
| N#Cc1cccc(OC2CC3(CCN(C(=O)O[C@H](CO)C(F)(F)F)CC3)C2)c1 [Example 86, (2R)-1,1,1-trifluoro-3-hydroxypropan-2-yl 2-(3-cyanophenoxy)-7-azaspiro[3.5]nonane-7-carboxylate] | 0.7 nM | 9 nM | 50100 1/s per M |
| O=C(O[C@H](CO)C(F)(F)F)N1CCC2(CC1)CC(c1ccccn1)CO2 (single isomer, unassigned) [Example 41] | 7 nM | 76 nM | 13200 1/s per M |
| CN([C@H]1COC2(CCN(C(=O)O[C@H](CO)C(F)(F)F)CC2)C1)S(=O)(=O)CC1CC(F)(F)C1 [Example 57, (2R)-1,1,1-trifluoro-3-hydroxypropan-2-yl (3R)-3-[{[(3,3-difluorocyclobutyl)methyl]sulfonyl}(methyl)amino]-1-oxa-8-azaspiro[4.5]decane-8-carboxylate] | 13 nM | 113 nM | 2770 1/s per M |
